{
  "source": "patent US5373040A",
  "about": "“Amorphous solid modification of 2,2',2\"-nitrilo[triethyl-tris-(3,3',5,5'-tetra-tert-butyl-1,1'-biphenyl- 2,2'-diyl)phosphite]” (Ciba-Geigy Corporation, priority 1993, dated 1994)",
  "key": {"[1]": {"assay": "Stabilization of ABS: yellowness index", "settings": "0.25 g per 100 g of ABS; air oven at 180° C. for 45 minutes; versus unstabilized ABS resin", "procedure": "A solution of 0.25 g of the instant compound of Example 1 in 40 ml of hexane/methanol is added to a rapidly stirred suspension of 100 g of ABS (acrylonitrile/butadiene/styrene terpolymer) in 600 g of water. The suspension is filtered and dried under vacuum at 40° C. for 40 hours. To the dried powder is added 2% by weight of titanium dioxide and 1% by weight of N,N'-ethylenebisstearamide on a two roll mill at 180° C. over four minutes. Compression molded plaques (0.8 mm) are prepared at 175° C. and placed in an air oven at 180° C. for 45 minutes. The color of said plaques are determined as yellowness index values using ASTM D1925-70."}, "[2]": {"assay": "Solubility in lubricating oil (Mobil BB oil)", "format": "physicochemical", "procedure": "The following experiments are performed to determine the solubility of amorphous compound A and crystalline compound B in Mobil BB oil. Both compounds have the same uniform particle sizes (40-70 micron).\nCompound A=amorphous form of 2,2',2\"-nitrilo-[triethyl-tris-(3,3',5,5'-tetra-tert-butyl-1,1'-biphenyl-2,2'-diyl) phosphite], prepared in accordance with instant Example 1.\nCompound B=crystalline form of 2,2',2\"-nitrilo[triethyl-tris-(3,3',5,5'-tetra-tert-butyl-1,1'-biphenyl-2,2'-diyl) phosphite], prepared in accordance with Example 4 of U.S. Pat. No. 4,318,845.\nInto a vial of 980 mg. of Mobil BB oil is added 20 mg. of compound A at ambient temperature. For the first 30 minutes, the vial is shaken every 10 minutes. After the initial 30 minutes, the vial is left standing.\nInto a vial of 980 mg. of Mobil BB oil is added 20 mg. of compound B at ambient temperature. For the first 30 minutes, the vial is shaken every 10 minutes. After the initial 30 minutes, the vial is left standing.\nInto a vial of 980 mg. of Mobil BB oil is added 20 mg. of compound A at ambient temperature. The vial is then placed into a 60° C. oil bath.\nInto a vial of 980 mg. of Mobil BB oil is added 20 mg. of compound B at ambient temperature. The vial is then placed into a 60° C. oil bath.\nInto a vial of 990 mg. of Mobil BB oil is added 10 mg. of compound A at ambient temperature. […] is shaken every 10 minutes. After the initial 30 minutes, the vial is left standing.\nInto a vial of 990 mg. of Mobil BB oil is added 10 mg. of compound B at ambient temperature. […] is shaken every 10 minutes. After the initial 30 minutes, the vial is left standing."}, "[3]": {"assay": "Stabilization of polycarbonate: yellowness index", "settings": "0.08 weight percent plus 0.3 weight percent TINUVIN 329; versus UV absorber alone", "procedure": "Additive free bisphenol A polycarbonate (LEXAN® 141-111N, General Electric) is dried and blended with 0.3 weight percent of a benzotriazole UV absorber TINUVIN® 329, Ciba-Geigy) and 0.08 weight percent of instant compound of Example 1. The mixture is extruded and pelletized at 550° F. (288° C.) on a 1\" (2.54 cm) single screw extruder. Injection molded plaques (2\"×2\"×125 mil; 5.08 cm×5.08 cm×3.175 mm) are prepared in a BOY 30M injection molder at 560° F. (293° C.) with a mold temperature of 150° C. The resulting plaques are measured for yellowness index (YI) using ASTM D 1925-70."}, "[4]": {"assay": "Stabilization of poly(butylene terephthalate): yellowness index", "settings": "0.3% by weight; versus control unstabilized PBT", "procedure": "Poly(butylene terephthalate), PBT (RYNITE® 9160, DuPont) is tumble blended with 0.3% by weight of the compound of instant Example 1. The polymer is then extruded and pelletized at 260° C. A portion of the collected pellets are reextruded under the same conditions for a second pass. The remainder from the first extrusion is injection molded into 2\"×2\"×125 mil (5.08 cm×5.08 cm×3.175 mm) plaques at 540° F. (282° C.) with a 100° C. mold temperature in a BOY 30M molder. Intrinsic viscosities of the second pass extrudate and the injection molded plaques are determined.\nThe plaques are measured for yellowness index (color) using ASTM D 1925-70."}, "[5]": {"assay": "Stabilization of 6,6-nylon: yellowness index", "settings": "0.5% by weight; versus unstabilized control plaques", "procedure": "6,6-Nylon (ZYTEL® 101, DuPont) is thoroughly dried in a vacuum oven and tumble blended with 0.5% by weight of the compound of instant Example 1. The polyamide is extruded on a 1\" (2.54 cm) MPM extruder at 575° F. (302° C.). The collected pellets are injection molder at 575° F. (302° C.) with the mold at 150° C. in a BOY 30M injection molder. The plaques obtained are measured for yellowness index (YI) values using ASTM D1925-70."}, "[6]": {"assay": "Process stabilization of polypropylene: yellowness index of plaques (ASTM D1925)", "settings": "in the presence of a representative phenolic antioxidant; versus prior art compound of U.S. Pat. No. 4,318,845", "source_text": "The test additives are incorporated into the polypropylene by dry blending or, when the additive is a liquid, using a minimum amount of methylene chloride solvent. The solvent is then removed by evaporation under reduced pressure."}, "[7]": {"settings": "compared to the prior art crystalline form"}},
  "data": [
    {"smiles": "CC(C)(C)c1cc(C(C)(C)C)c2op(OCCN(CCOp3oc4c(C(C)(C)C)cc(C(C)(C)C)cc4c4cc(C(C)(C)C)cc(C(C)(C)C)c4o3)CCOp3oc4c(C(C)(C)C)cc(C(C)(C)C)cc4c4cc(C(C)(C)C)cc(C(C)(C)C)c4o3)oc3c(C(C)(C)C)cc(C(C)(C)C)cc3c2c1", "note": "[Example 1, 2,2',2\"-nitrilo[triethyl-tris-(3,3',5,5'-tetra-tert-butyl-1,1'-biphenyl-2,2'-diyl)phosphite]]", "values": [
      {"measurement": "yellowness index", "setting": "[1]", "result": "lower yellowness index values (less discoloration)"},
      {"measurement": "Observation", "setting": "[2]; 1% by weight in Mobil BB oil, RT, 1.5 hrs., listed as A", "result": "Clear solution"},
      {"measurement": "Observation", "setting": "[2]; 1% by weight in Mobil BB oil, RT, 1.5 hrs., listed as compound A", "result": "clear solution"},
      {"measurement": "Time to clear solution", "setting": "[2]; 1% by weight in Mobil BB oil, RT, listed as A", "result": 1.5, "unit": "h"},
      {"measurement": "Time to clear solution", "setting": "[2]; 1% by weight in Mobil BB oil, RT, listed as compound A", "result": 1.5, "unit": "h"},
      {"measurement": "Observation", "setting": "[2]; 2% by weight in Mobil BB oil, 60° C. oil bath, 10 min., listed as A", "result": "Clear solution"},
      {"measurement": "Observation", "setting": "[2]; 2% by weight in Mobil BB oil, 60° C. oil bath, 10 min., listed as compound A", "result": "clear solution"},
      {"measurement": "Time to clear solution", "setting": "[2]; 2% by weight in Mobil BB oil, 60° C. oil bath, listed as A", "result": 0.167, "unit": "h"},
      {"measurement": "Time to clear solution", "setting": "[2]; 2% by weight in Mobil BB oil, 60° C. oil bath, listed as compound A", "result": 0.167, "unit": "h"},
      {"measurement": "Observation", "setting": "[2]; 2% by weight in Mobil BB oil, RT, 2.5 hrs., listed as A", "result": "Clear solution"},
      {"measurement": "Observation", "setting": "[2]; 2% by weight in Mobil BB oil, RT, 2.5 hrs., listed as compound A", "result": "clear solution"},
      {"measurement": "Time to clear solution", "setting": "[2]; 2% by weight in Mobil BB oil, RT, listed as A", "result": 2.5, "unit": "h"},
      {"measurement": "Time to clear solution", "setting": "[2]; 2% by weight in Mobil BB oil, RT, listed as compound A", "result": 2.5, "unit": "h"},
      {"measurement": "rate of dissolving in lubricants", "setting": "[2]; [7]", "result": "faster rate of dissolving"},
      {"measurement": "rate of dissolving in organic materials, such as in polymers and in lubricants", "setting": "[2]; [7]", "result": "faster rate of dissolving"},
      {"measurement": "solubility in lubricants", "setting": "[2]; [7]", "result": "better solubility"},
      {"measurement": "solubility in organic materials, such as in polymers and in lubricants", "setting": "[2]; [7]", "result": "better solubility"},
      {"measurement": "yellowness index (YI)", "setting": "[3]", "result": "lower YI values"},
      {"measurement": "yellowness index (color)", "setting": "[4]", "result": "lower YI values (less discoloration)"},
      {"measurement": "yellowness index (YI)", "setting": "[5]", "result": "lower YI values (less discoloration)"},
      {"measurement": "stabilizing polypropylene against discoloration (change in yellowness index)", "setting": "[6]", "result": "equal or more effective"}
    ]}
  ]
}
